Values of other authors, collected in patent US9034383B2 (NanoRx, Inc., priority 2010, dated 2015).

How the values were obtained:
angiogenesis = conditions: Thippeswamy 2008
rats = conditions: exercise-trained rats run to exhaustion on a treadmill; Kim et al. 2003

CCCCCCCCCCCCCCCCCCCCCCCCCCCCO [pure octacosanol, octacosanol]
angiogenesis (angiogenesis): inhibits angiogenesis
neurologic and pulmonary function (amyotrophic lateral sclerosis patients, double-blind placebo-controlled crossover, Fallat 1986): did not show any benefits
neutral sterol and bile acid concentration in feces (humans, Jahreis 2008): decreases
ergogenic properties (rats): sparing of muscle glycogen stores and increasing the oxidative capacity in the muscle
